# Key:
# B3Z cells = assay: Antigen-presentation assay using the B3Z reporter system, BMDCs as antigen presenting cells; type: cell-based, mouse; settings: BMDCs; molar ratio (bile acid/peptide/conjugate):antigen 4:1; mixed with OVA; FIG. 2
# Description: For this experiment, BMDCs were used as the antigen presenting cells (n=6) and the molar ratio (bile acid/peptide/conjugate): antigen was 4:1. Controls tested included no antigen (“PBS”), antigen alone (“OVA alone”), unconjugated NLS peptide (“SV40NLS”), unconjugated cholic acid mixed with OVA (“CA”), and the positive control peptide SIINFEKL (SEQ ID NO: 9) mixed with OVA (“SIINFEKL”). The dashed line represents the signal obtained with OVA alone. Bile acids: cholic acid (CA); glycodeoxycholic acid (GDCA); glycochenodeoxycholic acid (GCDCA); ursodeoxycholic acid (UDCA); and lithocholic acid (LCA).
# The dashed line represents the signal obtained with OVA alone. The readout was taken after 24 h of incubation and error bars represent SD (n=6). For this experiment, BMDCs were used as the antigen presenting cells.
# The dashed line represents the signal obtained with OVA alone. Readout was taken after 24 h of incubation from a single experiment. The molar ratio of CA-peptide conjugate: OVA was 22:1. For this experiment, BMDCs were used as the antigen presenting cells.
# For this experiment, BMDCs were used as the antigen presenting cells. The dashed line represents the signal obtained with OVA alone. Readout was taken after 24 h of incubation from a single experiment. The molar ratio of CA-peptide conjugate: OVA was as follows: CA-GWG-SV40NLS (12:1); CA-hnRNP M NLS (12:1); CA-NLS2-RPS17 NLS (22:1); CA-HuR NLS (22:1); CA-cMyc NLS (2:1); CA-NLS3-RPS17 NLS (22:1); CA-NLS2-RG-RPS17 NLS (2:1); CA-PQBP1 NLS (8:1); CA-hnRNPA1 M9 NLS (22:1); and CA-SV40 NLS (2:1).
# Various bile acid-NLS conjugates were screened using the B3Z reporter system. The B3Z cell line is a T-cell hybridoma specific for the H2-K^b-SIINFEKL complex. Once activated via its TCR, the LacZ reporter gene (under the NFAT promoter control) is expressed. Briefly, 1.5×10^5 BMDCs or 2.5×10^5 MSCs were co-cultured with 5×10^4 B3Z cells treated with the mixing conditions of ovalbumin (OVA) and bile acid-NLS conjugates for overnight at 37° C. with 5% CO2. The following day, all cells were washed twice with PBS (pH 7.4), and the cell pellets were lysed by adding 100 μL of a lysis buffer containing 0.15 mM chlorophenol red-beta-D-galactopyranoside (CPRG) substrate (Calbiochem, La Jolla, Calif.), 0.125% NP40 (EMD Sciences, La Jolla, Calif.), 9 mM MgCl2 (Aldrich, USA) and 100 mM 2-mercaptoethanol in PBS. After a 5- or 24-h incubation at 37° C., absorbance was taken at 570 nm with 636 nm as the reference wavelength. For these experiments, OVA was re-suspended in PBS (pH 7.3) at 5-10 mg/mL. The different bile acid-NLS conjugates were re-suspended in H2O at 10 mg/mL. Bile acid-NLS conjugate: antigen mixtures were prepared at different molar ratios according to Table 2.
# Variants of CA-SV40NLS were synthesized in order to explore structure-activity relationships relating to the antigen cross-presentation enhancing activity observed for this conjugate. More particularly, conjugates having different bile acids conjugated to the SV40NLS peptide (SEQ ID NO: 1) were synthesized and their effect on antigen presentation was evaluated by using the B3Z reporter system with the OVA antigen as described in Example 1. […] In FIG. 2, no increase in antigen cross-presentation over the antigen alone (“OVA”) was observed when OVA was mixed with either unconjugated cholic acid (“CA”) or SV40NLS peptide (“SV40NLS”), although lower sensitivity of the B3Z reporter system as compared to the OT-I CD8 T cell-based assay used in FIG. 1 may have been a factor.
# Further variants of CA-SV40NLS were synthesized in which the SV40NLS peptide was replaced with peptides comprising other NLS's (Table 3) and the antigen presentation activities of the CA-NLS peptide conjugates were evaluated using the B3Z reporter system as described in Example 1. The following conjugate:antigen molar ratios were tested for each conjugate: 2:1, 4:1, 8:1, 12:1 and 22:1. […]
# [1] = tested on: OVA-responding OT-I (CD8) cells; assay: Antigen cross-presentation assay: pulsed BMDCs co-cultured with OT-I CD8 T-cells, IFN-gamma by ELISA; type: cell-based, mouse; settings: BMDCs pulsed 3 h with highest enhancer:OVA ratios tested; co-culture with OT-I CD8 T-cells; FIG. 1
# Experimental: Mouse BMDCs were pulsed for 3 hours with antigen (OVA) alone, cholic acid (CA) alone, a cholic acid-NLS peptide conjugate (CA-SV40NLS) alone, different ratios of CA to antigen (CA:OVA=22:1, 12:1, 8:1, 4:1, and 2:1), or different ratios of an cholic acid-NLS peptide conjugate to antigen (CA-SV40NLS:OVA=22:1, 12:1, 8:1, 4:1, and 2:1). The pulsed BMDCs were then co-cultured with OT-I mouse-derived CD8 T-cells and IFN-gamma levels were quantified as a measure of cross presentation activity.
# Mouse bone marrow derived dendritic cells (BMDCs) were generated by flushing the whole marrow from mouse femurs using RPMI™ 1640 supplemented with 10% fetal bovine serum (FBS), 50 U/mL Penicillin-Streptomycin, 2 mM L-glutamine, 10 mM HEPES, 1% MEM Non-essential Amino Acids, 1 mM Sodium Pyruvate, 0.5 mM beta-mercaptoethanol. […] Mature DCs were assessed by flow cytometry for their surface expression of CD3, CD19, NK1.1, CD11c, CD80, CD86, and I-Ab.
# To evaluate antigen cross-presentation, cells were seeded at 25×10^3 cells per well in 24-well plates (Corning; Massachusetts, United States), then pulsed with antigens or antigen-containing mixtures at different concentrations for 3 h. […] After 72 hours, supernatants were collected and used to quantify cytokine production by commercial enzyme-linked immunosorbent assays (ELISAs). […]
# GII.3 human norovirus = settings: host intestinal cells; free bile acids; cited from earlier work
compound,measurement,setting,value
"C[C@H](CCC(=O)O)[C@H]1CC[C@H]2[C@@H]3[C@H](O)C[C@@H]4C[C@H](O)CC[C@]4(C)[C@H]3C[C@H](O)[C@]12C [CA, cholic acid]",antigen cross-presentation (B3Z response) compared with OVA alone,B3Z cells,no increase
same,"increase in the amount of IFN-gamma produced, as compared to BMDCs pre-pulsed with the OVA antigen alone",[1],up to 3 fold
same,effect on GII.3 human norovirus infection and replication,GII.3 human norovirus,increase GII.3 human norovirus infection and replication

# — patent publication US11612651B2, “Steroid acid-based immunogen enhancers” (priority 2021, dated 2023)
